In patent US20220332799A1, “HERV INHIBITORS FOR USE IN TREATING TAUOPATHIES” (Deutsches Zentrum Für Neurodegenerative Erkrankungen E.V. …, priority 2019, published 2022):

Test system: MuERV Env and Gag
Format: cell-based, mouse
Conditions: s2E P1 donors; Aza 200 nM or Dec 100 nM, then 5 days without drug; vs DMSO
Description: To inhibit methyltransferases, s2E P1 donor cells were treated for three days with methyltransferase inhibitors 5-Azacytidine (Aza) 200 nM, Decitabine (Dec) 100 nM or DMSO as solvent control. Subsequently, the cells were cultured in the absence of the drugs for 5 days. Pre-treated donor cells were subsequently cocultured with recipient cells as described above to monitor aggregate induction efficiency in recipient N2a NM-GFP^sol cells. Cell lysates of donor cells were also analyzed for MuERV Env and Gag expression levels by western blot. To increase DNA methylation, the s2E donor clone (P21) was treated with methyl group donors L-methionine (L-M) 80 mM, Betaine (B) 80 mM, Choline chloride (CC) 20 mM or medium control for 6 days. MuERV Env and Gag protein levels were analyzed by western blot. Subsequently, cells were cocultured with recipient cells for 16 h. The percentage of aggregate containing recipient cells was compared to the percentage of aggregate bearing recipients cocultured with solvent-treated donors.
Pre-designed siRNAs against murine XPR1 and mCat-1 genes were used to knock-down genes coding for putative receptors. For transfection, 2-4×10^5 cells/well were seeded on 6 well plates. The next day, 30 nM siRNA or plasmid DNA was transfected using Lipofectamine RNAiMAX or Lipofectamine2000 transfection reagent, respectively, according to the manufacturer's instructions (Thermo Fisher Scientific). After 2 days, transfected cells were harvested for aggregate induction assays and qRT-PCR, western blot analysis.
For Western blot analysis, protein concentrations were measured using the Quick Start™ Bradford Protein assay (Bio-Rad). Proteins were separated on NuPAGE®Novex® 4-12 Bis-Tris Protein Gels (Life Technologies) followed by transfer onto a PVDF membrane (GE Healthcare). Western blot analysis was performed using rat hybridoma anti-MuERV Env mAb83A25; anti-xenotropic MuLV virus antibody ABIN457298 for detecting both Env and Gag (antibodies-online); mouse anti-MuERV Gag ab100970 (Abcam); mouse anti-Alix (1:1000; BD Bioscience); rat anti-HA 3F10 (1:1000; Roche); mouse anti-GAPDH 6C5 (1:5000; Abcam); mouse anti-Hsc/Hsp70 N27F3-4 (1:1000; ENZO); mouse anti-VSV-G A5977 (Sigma); rabbit anti-Tau ab64193 (Abcam); mouse anti-HERV K Env HERM-1811-5 (Amsbio); mouse anti-HERV K Gag HERM-1841-5 (Amsbio). The membrane was incubated with Pierce™ ECL Western Blotting Substrate (Thermo Fisher Scientific) according to the manufacturer's recommendations.

## Nc1ncn([C@H]2C[C@H](O)[C@@H](CO)O2)c(=O)n1 [Decitabine, 5-aza-2′-deoxycytidine]
  expression of MuERV proteins: increased expression
